The source of these data is US11492405B2, “Reducing systemic regulatory t cell levels or activity for treatment of disease and injury of the CNS” (Yeda Research and Development Co. Ltd, priority 2014, dated 2022).

Format in all cases: in vivo, mouse
For experiment [1], the system named is 5XFAD AD-Tg mice. In words: Flow cytometry of CP IFN-γ-expressing immune cells in 5XFAD AD-Tg mice. To be noted: weekly-GA, end of 1st week (two GA injections). As to the method:
(§1) Mice were transcardially perfused with PBS, and tissues were treated as previously described (Baruch et al, 2013). Brains were dissected and the different brain regions were removed under a dissecting microscope (Stemi DV4; Zeiss) in PBS, and tissues were dissociated using the gentleMACS™ dissociator (Miltenyi Biotec). Choroid plexus tissues were isolated from the lateral, third and fourth ventricles of the brain, incubated at 37° C. for 45 min in PBS (with Ca^2+/Mg^2+) containing 400 U/ml collagenase type IV (Worthington Biochemical Corporation), and then manually homogenized by pipetting. Spleens were mashed with the plunger of a syringe and treated with ACK (ammonium chloride potassium) lysing buffer to remove erythrocytes. In all cases, samples were stained according to the manufacturers' protocols. All samples were filtered through a 70 μm nylon mesh, and blocked with anti-Fc CD16/32 (1:100; BD Biosciences). For intracellular staining of IFN-γ, the cells were incubated with […] (10 ng/ml; Sigma-Aldrich) and ionomycin (250 ng/ml; Sigma-Aldrich) for 6 h, and Brefeldin-A (10 μg/ml; Sigma-Aldrich) was added for the last 4 h. Intracellular labeling of cytokines was done with BD Cytofix/Cytoperm™ Plus fixation/permeabilization kit (cat. no. 555028). […] Cells were analyzed on an LSRII cytometer (BD Biosciences) using FlowJo software. […]
A general note: Flow cytometry measures light scatter and fluorescence of single cells or particles in a stream.

The test system of experiment [2] is 5XFAD AD-Tg mice. In words: Flow cytometry of splenocytes in 5XFAD AD-Tg mice. To be noted: weekly-GA, end of 1st week (two GA injections). As to the method: as §1
The subject of experiment [3] is 5XFAD AD-Tg mice. In words: Aβ plaque quantitation (immunohistochemistry) in 5XFAD AD-Tg mice. To be noted: AD-Tg/Foxp3-DTR+ mice, 3 weeks after last DTx injection. As to the method:
Tissue processing and immunohistochemistry were performed on paraffin embedded sectioned mouse (6 μm thick) and human (10 μm thick) brains. For human ICAM-1 staining, primary mouse anti-ICAM (1:20 Abcam; ab2213) antibody was used. Slides were incubated for 10 min with 3% H2O2, and a secondary biotin-conjugated anti-mouse antibody was used, followed by biotin/avidin amplification with Vectastain ABC kit (Vector Laboratories). Subsequently, 3,3′-diaminobenzidine (DAB substrate) (Zytomed kit) was applied; slides were dehydrated and mounted with xylene-based mounting solution. For tissue stainings, mice were transcardially perfused with PBS prior to tissue excision and fixation. CP tissues were isolated under a dissecting microscope (Stemi DV4; Zeiss) from the lateral, third, and fourth ventricles of the brain. For whole mount CP staining, tissues were fixated with 2.5% paraformaldehyde (PFA) for 1 hour at 4° C., and subsequently transferred to PBS containing 0.05% sodium azide. Prior to staining, the dissected tissues were washed with PBS and blocked (20% horse serum, 0.3% Triton X-100, and PBS) for 1 h at room temperature. Whole mount staining with primary antibodies (in PBS containing 2% horse serum and 0.3% Triton X-100), or secondary antibodies, was performed for 1 h at room temperature. Each step was followed by three washes in PBS. The tissues were applied to slides, mounted with Immu-mount (9990402, from Thermo Scientific), and sealed with cover-slips. For staining of sectioned brains, two different tissue preparation protocols (paraffin embedded or microtomed free-floating sections) were applied, as previously described (Baruch et al, 2013; Kunis et al, 2013). […] Microscopic analysis, was performed using a fluorescence microscope (E800; Nikon) or laser-scanning confocal microscope (Carl Zeiss, Inc.). The fluorescence microscope was equipped with a digital camera (DXM 1200F; Nikon), and with either a 20×NA 0.50 or 40×NA 0.75 objective lens (Plan Fluor; Nikon). […] For quantification of staining intensity, total cell and background staining was measured using ImageJ software (NIH), and intensity of specific staining was calculated, as previously described (Burgess et al, 2010). […]
From each brain, 6 μm coronal slices were collected, and eight sections per mouse, from four different pre-determined depths throughout the region of interest (dentate gyrus or cerebral cortex) were immunostained. […]

In experiment [4] the test system is 5XFAD AD-Tg mice. Briefly: GFAP immunostaining (hippocampal astrogliosis) in 5XFAD AD-Tg mice. To be noted: AD-Tg/Foxp3-DTR+ mice, 3 weeks after last DTx injection. The method, then:
Tissue processing and immunohistochemistry were performed on paraffin embedded sectioned mouse (6 μm thick) and human (10 μm thick) brains. For human ICAM-1 staining, primary mouse anti-ICAM (1:20 Abcam; ab2213) antibody was used. Slides were incubated for 10 min with 3% H2O2, and a secondary biotin-conjugated anti-mouse antibody was used, followed by biotin/avidin amplification with Vectastain ABC kit (Vector Laboratories). Subsequently, 3,3′-diaminobenzidine (DAB substrate) (Zytomed kit) was applied; slides were dehydrated and mounted with xylene-based mounting solution. For tissue stainings, mice were transcardially perfused with PBS prior to tissue excision and fixation. CP tissues were isolated under a dissecting microscope (Stemi DV4; Zeiss) from the lateral, third, and fourth ventricles of the brain. […] Microscopic analysis, was performed using a fluorescence microscope (E800; Nikon) or laser-scanning confocal microscope (Carl Zeiss, Inc.). The fluorescence microscope was equipped with a digital camera (DXM 1200F; Nikon), and with either a 20×NA 0.50 or 40×NA 0.75 objective lens (Plan Fluor; Nikon). […] For quantification of staining intensity, total cell and background staining was measured using ImageJ software (NIH), and intensity of specific staining was calculated, as previously described (Burgess et al, 2010). […]

Another experiment deals with Foxp3+ Tregs. Briefly: Conditional ablation of Treg by DTx, flow cytometry of blood and spleen. As to the method: as §1

Entries after “also recorded” stand apart in the source; their conditions may differ.

In the case of Glatiramer acetate [GA], in the experiment with 5XFAD AD-Tg mice [1], the “IFN-γ-producing cells at the CP” value is listed as “increase”. In addition, the “splenocyte Foxp3+ Treg levels” value in the experiment on 5XFAD AD-Tg mice [2] was “reduced”.

As to Diphtheria toxin [DTx], the “cerebral Aβ plaque burden in hippocampal dentate gyrus and cerebral cortex (5th layer)” value with 5XFAD AD-Tg mice [3] is “reduced”. For the same substance, the “hippocampal gliosis (GFAP immunostaining)” value in the experiment with 5XFAD AD-Tg mice [4] is “reduced astrogliosis; also recorded: reduction in hippocampal gliosis”. The “depletion of GFP-expressing FoxP3+CD4+ Treg cells” value in the experiment on Foxp3+ Tregs (blood and spleen, Foxp3.LuciDTR mice, DTx 8 ng/g i.p. daily for 4 days) is more than 99%. In addition, the “depletion of Foxp3+ cells” value in the experiment with Foxp3+ Tregs (splenocytes of AD-Tg/Foxp3-DTR+/− mice, 1 day after last of 4 daily i.p. DTx injections) was approximately 99%.
